# Tests used:
# db/db mice = assay: Activity of decreasing blood sugar using db/db mice; assay type: in vivo; details: female db/db mice, 1 mg/kg, compound mixed with powdered chow, 14 days; difference between db/db and +/+ mouse defined as 100%
# Excerpt: <Activity of Decreasing Blood Sugar Using db/db Mice>
# • 1-(2-Chloro-4-(n-pentyloxy)benzyl)-2-methyl-6-((4-methylbenzene)sulfonylcarbamoyl)benzimidazole—Compound(15) • 6-((N-1-butylaminosulfonyl)carbamoyl)-1-(2-chloro-4-phenylbenzyl)-2-methylbenzimidazole—Compound(76) Animal Used
# Five-week-old female mice [C57BL/KsJ-dbm db+/db+, C57BL/KsJ-dbm +m/+m (Jackson Laboratory)] were purchased, and were kept for 2 to 3 weeks. Then, these mice were used in the test.
# A test compound was mixed with a powdered chow (CE-2, made by Nippon Clea) using a mortar. The mixing ratio was 0.01%. The mixed chow was changed twice a week for each group. The feed amount and the remaining amount were recorded, and the intake was calculated from the difference therebetween.
# The female db/db mice were grouped according to the body weight, the plasma glucose, and the plasma triglyceride concentrations. Then, the mixture containing the test compound was administered to the mice for 14 days (from 8 to 10 weeks old). In the morning on day 7 and day 14, blood was collected from the orbital venous plexus using heparinized glass capillary tubes (Chase Heparinized Capillary Tubes), and a plasma fraction was obtained through centrifugal separation. Plasma glucose, triglyceride, and insulin concentrations were measured on day 0 and day 14. Plasma glucose and triglyceride concentrations were measured on day 7. The body weight was measured on day 0, day 7, and day 14. After the final collection of the blood, the mice were killed using CO2 gas.
# The plasma glucose was measured by a glucose oxidase method (Glucose CII-Test Wako made by Wako Pure Chemical Industries, Ltd.) using from 10 to 15 μl of plasma. The plasma triglyceride concentration was measured by a GPO-p-chlorophenol method (Triglyceride G-Test Wako made by Wako Pure Chemical Industries, Ltd.) or a GPO-DAOS method (Triglyceride E-Test Wako) using from 10 to 15 μl of plasma. The above-mentioned measurements were conducted immediately after the blood collection. The plasma insulin concentration was measured by radioimmunoassay method (Phadesef Insulin RIA Kit made by Cabi Pharmacia) using 20 μl of plasma (which can be stored at −20° C.).
# The difference in the plasma glucose and the plasma triglyceride concentrations between the db/db mouse and the +/+ mouse was defined as 100%, and the rate (%) of decrease in the plasma glucose and the plasma triglyceride concentrations of the group to which the test compound was administered was calculated. […]
Structure (SMILES),rate of decrease in the plasma glucose (db/db mice) [%],rate of decrease in the plasma triglyceride (db/db mice) [%],melting point [°C]
"CCCCCOc1ccc(Cn2c(C)nc3ccc(C(=O)NS(=O)(=O)c4ccc(C)cc4)cc32)c(Cl)c1 [Compound (15), 1-(2-chloro-4-(n-pentyloxy)benzyl)-2-methyl-6-((4-methylbenzene)sulfonylcarbamoyl)benzimidazole]",79,69,–
"CCCCC#Cc1ccc(Cn2c(C)nc3ccc(C(=O)NS(=O)(=O)CCCCC)cc32)c(Cl)c1 [Compound (44), 1-(2-chloro-4-(1-hexyn-1-yl)benzyl)-2-methyl-6-(1-pentanesulfonylcarbamoyl)benzimidazole]",–,–,190 to 191
"CCCCCS(=O)(=O)NC(=O)c1ccc2nc(C)n(Cc3ccc(N4CCOCC4)cc3Cl)c2c1 [Compound (71), 1-(2-chloro-4-morpholinobenzyl)-2-methyl-6-(1-pentanesulfonylcarbamoyl)benzimidazole]",–,–,205 to 207
"CCCNS(=O)(=O)NC(=O)c1ccc2nc(C)n(Cc3ccc(C(F)(F)F)cc3Cl)c2c1 [Compound (74), 1-(2-chloro-4-(trifluoromethyl)benzyl)-2-methyl-6-((N-1-propylaminosulfonyl)carbamoyl)benzimidazole]",–,–,202 to 203
"CCCCNS(=O)(=O)NC(=O)c1ccc2nc(C)n(Cc3ccc(-c4ccccc4)cc3Cl)c2c1 [Compound (76), 6-((N-1-butylaminosulfonyl)carbamoyl)-1-(2-chloro-4-phenylbenzyl)-2-methylbenzimidazole]",71,98,–
"CCCNS(=O)(=O)NC(=O)c1ccc2nc(C)n(Cc3ccc(OCC)cc3Cl)c2c1 [Compound (86), 1-(2-chloro-4-(ethyloxy)benzyl)-2-methyl-6-((N-1-propylaminosulfonyl)carbamoyl)benzimidazole]",–,–,175.3 to 176.2
"CCCCCOc1ccc(Cn2c(C)nc3ccc(C(=O)NS(=O)(=O)NCCC)cc32)c(Cl)c1 [Compound (89), 1-(2-chloro-4-(pentyloxy)benzyl)-2-methyl-6-((N-1-propylaminosulfonyl)carbamoyl)benzimidazole]",–,–,176.4 to 179.1
"CCNS(=O)(=O)NC(=O)c1ccc2nc(C)n(Cc3ccc(-c4ccco4)cc3Cl)c2c1 [Compound (91), 1-(2-chloro-4-(2-furyl)benzyl)-6-((N-ethylaminosulfonyl)carbamoyl)-2-methylbenzimidazole]",–,–,190.5 to 192.2
"CCCNS(=O)(=O)NC(=O)c1ccc2nc(C)n(Cc3ccc(-c4ccco4)cc3Cl)c2c1 [Compound (92), 1-(2-chloro-4-(2-furyl)benzyl)-2-methyl-6-((N-1-propylaminosulfonyl)carbamoyl)benzimidazole]",–,–,177.8 to 180.2

# Reference: patent US6869950B1, “Benzimidazole derivatives” (Fujisawa Pharmaceutical Co., Ltd., priority 1998, dated 2005)
